Experimental data taken from patent US20220265676A1, “[…] DIBENZO[…] COMPOUNDS FOR USE IN THE THERAPY OF CDKL5 DISORDER” (Healx Limited, priority 2016, published 2022).

How the values were obtained:
[1] = tested on: AMPA receptor subunit GluR2; assay: CDKL5 gene silencing experiment, Western blotting of GluR2 and GluR2 phospho-Ser880 in primary hippocampal cultures; type: cell-based, mouse; conditions: CDKL5-silenced hippocampal neurons
Cdkl5 knockout mice = assay: Rotarod assessment of motor coordination in Cdkl5 knockout mice; type: in vivo
Text: The generation of Cdkl5 knockout mice and rotarod assessment of motor coordination could be carried out following the method described in Wang, I. -T. J et al. (2012) PNAS 109: 21516-21521, as follows.

[2] = tested on: AMPA receptor subunit GluR2; assay: CDKL5 gene silencing experiment, immunofluorescence of cell-surface expressed GluR2 in primary hippocampal cultures; type: cell-based, mouse; conditions: 10 uM on alternate days from DIV11 to DIV18 (DIV11-13-15-17); CDKL5-silenced hippocampal neurons
[3] = 10 uM on alternate days from DIV11 to DIV18 (DIV11-13-15-17)
[4] = 10 μM on alternate days from DIV15-18 (DIV15-17)

| SMILES | effect of CDKL5 silencing on expression of the AMPA receptor subunit GluR2 (Western blotting) [1, 3] | effect of CDKL5 silencing on phosphorylated GluR2 (phosphorylation at serine-880) (Western blotting) [1, 3] | effect of CDKL5 silencing on expression of the AMPA receptor subunit GluR2 (Western blotting) [1, 4] | effect of CDKL5 silencing on phosphorylated GluR2 (phosphorylation at serine-880) (Western blotting) [1, 4] | time spent on the rotarod before falling (Cdkl5 knockout mice; Cdkl5 knockout mice treated before onset of motor deficits, at 3 weeks of age, relative to untreated mice) | rotarod scores (motor coordination and balance) (Cdkl5 knockout mice; Cdkl5 knockout mice treated from 6 weeks of age for 4 weeks, after onset of motor deficits, versus vehicle) | effect of CDKL5 silencing on expression of GluR2 in terms of number of puncta (immunofluorescence) [2] |
| --- | --- | --- | --- | --- | --- | --- | --- |
| CN1c2ccccc2C(NCCCCOCC(=O)O)c2ccc(Cl)cc2S1(=O)=O.Cl (stereo not drawn) [TIOX, 2-(4-((3-chloro-6-methyl-5,5-dioxido-6,11-dihydrodibenzo[c,f][1,2]thiazepin-11-yl)amino)butoxy)acetic acid, HCl salt] | reversed the effect of CDKL5 silencing | reversed the effect of CDKL5 silencing | reversed the effect of CDKL5 silencing | reversed the effect of CDKL5 silencing |  |  |  |
| CN1c2ccccc2C(NCCCCCCC(=O)O)c2ccc(Cl)cc2S1(=O)=O (stereo not drawn) [Tianeptine, 7-[(3-chloro-6,1′-dihydro-6-methyl-dibenzo[c,f][1,2]thiazepin-11-yl)amino]heptanoic acid S,S-dioxide] |  |  |  |  | increase the time spent on the rotarod before falling | higher than scores for Cdkl5 knockout mice given vehicle but are below WT values |  |
| CN1c2ccccc2C(NCCCCCCC(=O)O)c2ccc(Cl)cc2S1(=O)=O.O=S(=O)(O)O (stereo not drawn) [tianeptine sulphate] | reversed the effect of CDKL5 silencing | reversed the effect of CDKL5 silencing |  |  |  |  | reversed the effect of CDKL5 silencing |
